From patent publication US20070208040A1, “A2A ADENOSINE RECEPTOR ANTAGONISTS” (priority 2006, published 2007)
pKi: −log10 of the molar value.

Target: A2A adenosine receptor (UniProt P29274)
Test: A2A radioligand binding assay (displacement of 3H-MSX-2)
Set-up: species or system human
Conditions: displacement of 2 nM 3H-MSX-2 from 15 ug A2A membrane, 23° C., 2 hours
Source text: A tritiated adenosine A2A antagonist, 3-(3-hydroxypropyl)-7-methyl-8-(m-methoxystyryl)-1-propargylxanthine, (3H-MSX-2, specific activity: 80 Ci/mmol), was purchased from American Radiolabeled Chemicals, Inc (St. Louis, Mo.). A tritiated adenosine A1 antagonist, 1,3-Dipropyl-8-cyclopentylxanthine ([^3H]DPCPX, specific activity: 120 Ci/mmol) was purchased from Perkin Elmer (Boston, Mass.). A tritiated adenosine A2a antagonist, 4-(2-[7-amino-2-(2-furyl)[1,2,4]triazolo[2,3-a][1,3,5]triazin-5-ylamino]ethyl)phenol ([^3H]ZM241385 specific activity: 27.4 Ci/mmol) was purchased from American Radiolabeled Chemicals, Inc (St. Louis, Mo.). Adenosine Deaminase (ADA) was purchased from Roche Molecular Biochemicals (Nutley, N.J.). GTP was purchased from Sigma. Concentrated stock solution (10 mM) of compounds was dissolved in dimethylsulfoxide (DMSO), stored at −20° C., and diluted in Tris-EDTA buffer (50 mM Tris and 1 mM EDTA, 10 mM MgCl2, pH 7.4) for use in experiments. The final content of dimethylsulfoxide in Tris-EDTA buffer during experiments was not more than 1%. Male Sprague Dawley rats, weighted 250-400 g, 8-10 weeks old, were purchased from Charles River Labs (Wilmington, Mass.).
HEK293 (Human Embryonic Kidney 293) cells stably expressing human A2A adenosine receptor or human A2B adenosine receptor were maintained in DMEM supplemented with 10% fetal bovine serum, 2 mM L-glutamine, 100 IU/ml penicillin, 50 μg/ml streptomycin and 2 μg/ml puromycin. CHO (Chinese Hamster Ovary) cells stably expressing human A1 adenosine receptor or human A3 adenosine receptor were maintained in F12K medium supplemented with 10% fetal bovine serum, 2 mM L-glutamine, 100 IU penicillin, 50 μg streptomycin and 8 μg/ml puromycin. PC12 (rat pheochromocytoma) cells were cultured in F12K medium supplemented with 10% horse serum and 2.5% fetal bovine serum, 2 mM L-glutamine, 100 IU/ml penicillin, and 50 μg/ml streptomycin. All cells were maintained at 37° C. in a humidified 5% CO2/95% air incubator and recultivated 2 times per week.
Cultured cells in 150 mm^2 dishes were washed once with PBS, detached by scrapping, collected with buffer A (10 mM HEPES, 10 mM EDTA, pH 7.4) containing protease inhibitor cocktail. Cells were then homogenized by a handheld homogenizer at a speed of 4.5 for 1 min. The homogenate was centrifuged by a Beckman ultracentrifuge at a speed of 29,000 × g for 15 min. The pellets were resuspended in buffer HE (10 mM HEPES, 1 mM EDTA, pH 7.4, with protease inhibitor cocktail), centrifuged again at 29,000 × g for 15 min. The crude membrane was resuspended using buffer HE, and protein concentration was measured by the method of Lowery with BSA as standard. Similar procedures were used for membrane preparation for fresh rat tissues. All experimental procedures were done at 4° C. Membranes were aliquot and kept at −80° C.
The binding assays utilized 15 ug of A2A membrane (human recombinant A2A membrane, rat striatal membrane, or PC 12 cell membrane) that had been treated with adenosine deaminase and 50 mM Tris-EDTA buffer (pH=7.4) followed by mixing 2 μL of serially diluted DMSO stock solution of the compounds of this invention at concentrations ranging from 10 μM to 0.1 nM or the control received 2 μL of DMSO alone, then the tritiated antagonist 3-(3-hydroxypropyl)-7-methyl-8-(m-methoxystyryl)-1-propargylxanthine (^3H-MSX-2) in Tris-EDTA buffer (50 mM Tris, 1 mM EDTA, 10 mM MgCl2, pH of 7.4) was added to achieve a final concentration of 2 nM. After incubation at 23° C. for 2 hours, the solutions were filtered using a membrane harvester with multiple washing of the membranes (3×). The filter plates were counted in scintillation cocktail affording the amount of displacement ^3H-MSX-2 by the competitive binding compositions of this invention. Radioligand binding data was analyzed using GraphPad Prism version 4.0 (San Diego, Calif.). […]

pKi	SMILES
6.15	CCOC(=O)c1sc2[nH]c(=O)n(C)c(=O)c2c1C [XVII, ethyl 3,5-dimethyl-2,4-dioxo-1,3-dihydrothiopheno[2,3-d]pyrimidine-6-carboxylate]
6.16	CCn1c(=O)[nH]c2sc(C)c(C)c2c1=O [XVI, 3-ethyl-5,6-dimethyl-1,3-dihydrothiopheno[2,3-d]pyrimidine-2,4-dione]
7.02	CCCn1c(=O)[nH]c2sc(C3=N[C@@H](C)CO3)c(C)c2c1=O [XLV, 6-((4S)-4-methyl(1,3-oxazolin-2-yl))-5-methyl-3-propyl-1,3-dihydrothiopheno[2,3-d]pyrimidine-2,4-dione]
6.39	CCn1c(=O)[nH]c2sc(-c3ccc(OC)nc3)c(C)c2c1=O [LIV, 3-ethyl-6-(6-methoxy(3-pyridyl))-5-methyl-1,3-dihydrothiopheno[2,3-d]pyrimidine-2,4-dione]

The remaining lines, values behind:

SMILES	pKi
CCn1c(=O)c2c(C)c(-c3ccc[nH]3)sc2n(C)c1=O [XLIX, 3-ethyl-1,5-dimethyl-6-pyrrol-2-yl-1,3-dihydrothiopheno[2,3-d]pyrimidine-2,4-dione]	6.31
CCn1c(=O)c2c(C)c(-c3cc(C)cs3)sc2n(C)c1=O [XLVII, 3-ethyl-1,5-dimethyl-6-(4-methyl(2-thienyl))-1,3-dihydrothiopheno[2,3-d]pyrimidine-2,4-dione]	6.28
CCn1c(=O)[nH]c2sc(-c3ccoc3)c(C)c2c1=O [II, 3-ethyl-6-(3-furyl)-5-methyl-1,3-dihydrothiopheno[2,3-d]pyrimidine-2,4-dione]	7.06
CCn1c(=O)[nH]c2sc(-c3ccccn3)c(C)c2c1=O [XXXVIII, 3-ethyl-5-methyl-6-(2-pyridyl)-1,3-dihydrothiopheno[2,3-d]pyrimidine-2,4-dione]	6.92
